{
  "source": "paper PMC7145303",
  "about": "“In Vitro Activities of MMV Malaria Box Compounds against the Apicomplexan Parasite Neospora caninum, the Causative Agent of Neosporosis in Animals” (Molecules, 2020)",
  "key": {"[1]": {"system": "Plasmodium falciparum blood forms", "set-up": "method as in PMID 31665424", "details": "cited from earlier work"}, "[2]": {"system": "Theileria annulata", "details": "cited from earlier work; for Therapeutic index: T. annulata vs macrophages"}, "[3]": {"system": "N. caninum tachyzoites", "experiment": "N. caninum β-galactosidase reporter strain proliferation in HFF (screen and inhibition curves)", "assay_type": "cell-based", "details": "Neospora caninum", "method": "Figure 2 Dose response curves of 9 Medicines for Malaria Venture (MMV) Malaria Box compounds. […] The inhibition of N. caninum tachyzoite proliferation was determined using a β-galactosidase reporter strain in the presence of a concentration series of compounds added prior to the infection of confluent human foreskin fibroblasts by tachyzoites. The mean values ± SE are indicated for quadruplicates.\nFor an initial screen, 390 compounds (1 µM compound/well) were added to human foreskin fibroblasts (HFFs) previously seeded in 96-well-plates. DMSO (0.25%) was included as a solvent control. HFF monolayers were either left uninfected or were infected with 10^3 N. caninum beta-galactosidase expressing tachyzoites per well. After 3 days, N. caninum proliferation was assayed by measuring beta-galactosidase activity, and HFF viability was monitored using the Alamar Blue assay. This screen was repeated once for confirmation, yielding identical results. Forty compounds showing values lower than the cut-off of the beta-galactosidase assay were regarded as effective against N. caninum, compounds yielding values lower than the cutoff of the Alamar Blue assay were regarded as cytotoxic. Effective compounds without cytotoxicity were regarded as potential hits and were retained for further experiments. The IC50 values (inhibitory concentration of 50% of the solvent control value) of selected compounds were determined in quadruplicate wells in the same assay set-up and were calculated as described.\n(§1) To define the cutoff values in the initial screening, compounds were regarded as effective against N. caninum when the beta-galactosidase values were lower than the mean values of the controls (8 replicates) minus three times the standard deviation of these control values. Furthermore, compounds were regarded as cytotoxic when the Alamar Blue values were lower than the mean values of the untreated controls (8 replicates) minus three times the standard deviation of these control values. The IC50 values were calculated after the logit-log transformation of the relative growth (RG; control = 1) according to the formula ln (RG/(1 − RG)) = a × ln(drug concentration) + b, and the subsequent regression analysis was carried out using the corresponding software tool contained in the Excel software package (Microsoft, Seattle, WA, USA)."}, "[4]": {"set-up": "AUC0-inf / AUC0-last: unit not given here", "details": "mice, p.o., data provided by MMV, cited from earlier work; for AUC0-last / MRT0-last / Tlast / Tmax / Cmax: 114 µmol/kg (1),(5), 119 µmol/kg (2); for Cmax: plasma"}, "[5]": {"system": "human foreskin fibroblasts (HFFs)", "experiment": "HFF viability, Alamar Blue assay", "assay_type": "cell-based", "details": "1 µM compound/well, uninfected confluent HFF, 3 days", "method": "For an initial screen, 390 compounds (1 µM compound/well) were added to human foreskin fibroblasts (HFFs) previously seeded in 96-well-plates. DMSO (0.25%) was included as a solvent control. HFF monolayers were either left uninfected or were infected with 10^3 N. caninum beta-galactosidase expressing tachyzoites per well. After 3 days, N. caninum proliferation was assayed by measuring beta-galactosidase activity, and HFF viability was monitored using the Alamar Blue assay. This screen was repeated once for confirmation, yielding identical results. […]\nas §1, with “Furthermore, compounds were regarded as cytotoxic when the Alamar Blue values were lower than the mean values of the untreated controls (8 replicates) minus three times the standard deviation of these control values.” left out"}, "[6]": {"system": "N. caninum tachyzoites", "assay_type": "cell-based, Neospora caninum", "details": "500 nM, TEM at 6, 12, 24, 48 h of treatment", "method": "The transmission electron microscopy of N. caninum-infected HFF monolayers was done as previously described. Briefly, HFFs were grown to confluency in 6-well tissue culture devices and were infected with freshly isolated N. caninum tachyzoites during 2 h at 37 °C/5% CO2. After one wash in PBS, treatments with the compounds (1), (2), and (5) were initiated, all at 500 nM. The controls were treated with the corresponding amount of DMSO. After 6, 12, 24, or 48 h, samples were rinsed in PBS, and were fixed in 100 mM of cacodylate buffer pH7.3 containing 2.5% glutaraldehyde for 2 h at room temperature. The cells were scraped and centrifuged at 1000 g for 10 min at 4 °C and, and the resulting pellet was further fixed in the same solution at 4 °C overnight, followed by post-fixation in 2% OsO4 in cacodylate buffer for 4 h at 4 °C. Subsequently, the specimens were washed and pre-stained in Uranyless^TM (Electron Microscopy Sciences, Hatfield, PA, USA), followed by dehydration in a graded series of ethanol (30%, 50%, 70%, 90%, and 100%). They were finally embedded in Epon 820 epoxy resin over a period of 2 days with 3 resin changes. The resin was polymerized at 65 °C for 24 h, and 80-nm sections were cut on a Reichert and Jung ultramicrotome. The sections were loaded onto 300-mesh copper grids (Plano GmbH, Marburg, Germany) and were stained with Uranyless^TM and lead citrate as described."}, "[7]": {"details": "source of values not stated; cited from earlier work"}, "[8]": {"system": "Cryptosporidium parvum", "set-up": "method as in PMID 24566188", "details": "cited from earlier work"}, "[9]": {"system": "cysteine proteinases", "set-up": "method as in PMID 27467575", "details": "functional assays; cited from earlier work"}, "[10]": {"system": "Brugia malayi", "set-up": "method as in PMID 27467575", "details": "cited from earlier work"}, "[11]": {"details": "72 h, 3 days, concentration range 0–250 nM, with 95% confidence intervals"}},
  "note": "Where two headings read alike, the source gives them in different places.",
  "data": [
    {"compound": "CN(C)c1ccc(C(O)(c2ccc(N(C)C)cc2)c2ccc(N(C)C)cc2)cc1", "note": "[Compound (1)]", "values": [
      {"measurement": "Rapidity of action against P. falciparum blood forms", "setting": "[1]", "value": "more slowly than artesunate, but faster than atovaquone"},
      {"measurement": "Therapeutic index", "setting": "[2]", "value": 2.5},
      {"measurement": "Effectiveness against T. annulata", "setting": "[2]", "value": "most effective against T. annulata"},
      {"measurement": "IC50", "setting": "[3]; [11]", "value": "0.025 ± 0.005", "unit": "µM"},
      {"measurement": "AUC0-last", "setting": "[4]", "value": 27.2},
      {"measurement": "MRT0-last", "setting": "[4]", "value": 4.80, "unit": "h"},
      {"measurement": "Tlast", "setting": "[4]", "value": 9.00, "unit": "h"},
      {"measurement": "Tmax", "setting": "[4]", "value": 5.00, "unit": "h"},
      {"measurement": "Cmax", "setting": "[4]", "value": 1090, "unit": "nM"},
      {"measurement": "Cytotoxicity against HFFs", "setting": "[5]", "value": "did not affect confluent HFFs"},
      {"measurement": "Effects on the ultrastructure of N. caninum tachyzoites", "setting": "[6]", "value": "cytoplasmic vacuoles that were already detectable after 6 h of treatment"},
      {"measurement": "Effects on the ultrastructure of N. caninum tachyzoites", "setting": "[6]; listed as MMV665941", "value": "specifically induced distinct alterations in the tachyzoites"},
      {"measurement": "LogP", "setting": "[7]", "value": 4.76},
      {"measurement": "IC50", "setting": "[8]; read-out: IC50 against Cryptosporidium parvum", "value": "~0.8", "unit": "µM"}
    ]},
    {"compound": "O=C(Nc1cccc(C(F)(F)F)c1)c1cc(Cl)ccc1O", "note": "[Compound (2)]", "values": [
      {"measurement": "Rapidity of action against P. falciparum blood forms", "setting": "[1]", "value": "very rapidly"},
      {"measurement": "IC50", "setting": "[3]; [11]", "value": "0.071 ± 0.03", "unit": "µM"},
      {"measurement": "MRT0-last", "setting": "[4]", "value": 5.24, "unit": "h"},
      {"measurement": "Tlast", "setting": "[4]", "value": 9.00, "unit": "h"},
      {"measurement": "Tmax", "setting": "[4]", "value": 6.33, "unit": "h"},
      {"measurement": "Cmax", "setting": "[4]", "value": 62, "unit": "nM"},
      {"measurement": "Effects on the ultrastructure of N. caninum tachyzoites", "setting": "[6]", "value": "after a treatment duration of 12 h (Figure 6C), the loss of the tachyzoite mitochondrial matrix was evident"},
      {"measurement": "Effects on the ultrastructure of N. caninum tachyzoites", "setting": "[6]; listed as MMV665807", "value": "specifically induced distinct alterations in the tachyzoites"},
      {"measurement": "LogP", "setting": "[7]", "value": 6.06}
    ]},
    {"compound": "CCCOCc1cc(CN2CCN(c3cccc(Cl)c3)CC2)c(O)c2ncccc12", "note": "[Compound (3)]", "values": [
      {"measurement": "Rapidity of action against P. falciparum blood forms", "setting": "[1]", "value": "very slowly"},
      {"measurement": "Inhibition of cysteine proteinases", "setting": "[9]", "value": "inhibits cysteine proteinases"},
      {"measurement": "IC50", "setting": "[3]; [11]", "value": "0.099 ± 0.01", "unit": "µM"},
      {"measurement": "LogP", "setting": "[7]", "value": 4.71}
    ]},
    {"compound": "COc1ccc(C(=O)NC(c2ccc(Cl)cc2Cl)c2cc(Cl)c3cccnc3c2O)cc1", "note": "(stereo not drawn) [Compound (4)]", "values": [
      {"measurement": "Rapidity of action against P. falciparum blood forms", "setting": "[1]", "value": "relatively slowly"},
      {"measurement": "Therapeutic index", "setting": "[2]", "value": "around 18"},
      {"measurement": "Effectiveness against T. annulata", "setting": "[2]", "value": "most effective against T. annulata"},
      {"measurement": "IC50", "setting": "[3]; [11]", "value": "0.079 ± 0.01", "unit": "µM"},
      {"measurement": "Effectiveness against the helminth Brugia malayi", "setting": "[10]", "value": "effective"},
      {"measurement": "LogP", "setting": "[7]", "value": 6.15},
      {"measurement": "Effectiveness against C. parvum", "setting": "[8]", "value": "effective against C. parvum"}
    ]},
    {"compound": "O=C1c2ccc3c4c(ccc(c24)C(=O)N1CCCCO)C(=O)N(CCCCO)C3=O", "note": "[Compound (5)]", "values": [
      {"measurement": "IC50", "setting": "[3]", "value": "< 0.2", "unit": "µM"},
      {"measurement": "IC50", "setting": "[3]; [11]", "value": "0.15 ± 0.03", "unit": "µM"},
      {"measurement": "AUC0-last", "setting": "[4]", "value": 0.475},
      {"measurement": "MRT0-last", "setting": "[4]", "value": 1.55, "unit": "h"},
      {"measurement": "Tlast", "setting": "[4]", "value": 7.00, "unit": "h"},
      {"measurement": "Tmax", "setting": "[4]", "value": 0.444, "unit": "h"},
      {"measurement": "Cmax", "setting": "[4]", "value": 308, "unit": "nM"},
      {"measurement": "AUC0-inf", "setting": "[4]; 114 µmol/kg", "value": 0.486},
      {"measurement": "MRT0-inf", "setting": "[4]; 114 µmol/kg", "value": 1.80, "unit": "h"},
      {"measurement": "T1/2", "setting": "[4]; 114 µmol/kg", "value": 1.48, "unit": "h"},
      {"measurement": "Effects on the ultrastructure of N. caninum tachyzoites", "setting": "[6]", "value": "ongoing proliferation despite clear ultrastructural alterations"},
      {"measurement": "Effects on the ultrastructure of N. caninum tachyzoites", "setting": "[6]; listed as MMV009085", "value": "specifically induced distinct alterations in the tachyzoites"},
      {"measurement": "LogP", "setting": "[7]", "value": "−1.30"},
      {"measurement": "Effectiveness against C. parvum", "setting": "[8]", "value": "effective against C. parvum with an IC50 in same range"}
    ]}
  ]
}
